Data on two compounds can be found in patent publication US20160310619A1, “SCREENING METHODS FOR ACETYLCHOLINE RELATED BIOACTIVE MATERIALS USING INHERITED COLOR PREFERENCE OF FISH” (GENOMIC DESIGN BIOENGINEERING COMPANY, priority 2014, published 2016).

The subject of experiment [1] is zebrafish. Put plainly: Color preference of zebrafish in blue/yellow color maze after alcohol. The experiment is classed as in vivo, zebrafish (Danio rerio). The conditions noted are these: zebrafish 25 days after birth; alcohol 0.5%, 1%, 2% in egg water vs 0% comparison group; FIG. 7. The text has this: A method for detecting bioactive materials using the innate color preference instinct of fish based on the color recognition and color preference results according to the visual recognition of zebrafish was developed. In order to identify whether a method for screening a bioactive material according to the present invention may effectively detect candidate materials, alcohol was used as an example of the bioactive material to identify whether the color preference of zebrafish is changed between before applied to zebrafish and after applied to the zebrafish. This utilizes the common sense that humans' recognition ability is changed depending on the blood alcohol concentration.
A specific experimental method was as follows. A straight line-shaped screening device (color maze) with a combination of blue and yellow was prepared, and 40 zebrafish, 25 days after birth, were used. Every 10 of the fish were put in each straight-line groove, egg water of 5 ml was used, and then, video-recording was performed for 30 minutes using a video recorder. As predicted, many of the zebrafish moved to blue that is a preferred color of zebrafish. […] The number of zebrafish in each color section was counted through the video recorded over five times in total.

Experiment [2] has as its system zebrafish. The experiment can be described thus: Screening for acetylcholine neurotransmission-related materials by innate color preference (blue/yellow color maze). The format is in vivo, zebrafish (Danio rerio). Conditions: acetylcholinesterase inhibitors vs egg water; five days old fish; FIG. 9(A)-(C).
Source text: For this experiment, a straight line-shaped screening device (color maze) was used as a screening device, and blue and yellow that most differ in color preference were used. Further, five days old young fish born from the same male and female were used in the channels of the device and divided into a comparison group and an experimental group in this experiment. The number of entities used in the comparison group and the experimental group was 10 per channel. The final volume of egg water used in each channel was fitted into 4 mL. Considering the direction for illumination and time of transmission of drug to nerves, video-recording was performed for 30 minutes, and then, sleeves were changed. Then, video-recording was resumed for 30 minutes. The number of entities in each of the sections with different colors was counted every two minutes and was processed statistically. As statistics, the significance of the comparison group and the experimental group was identified through the T-test (SPSS, USA).
For acetylcholine (Sigma), tacrine (Sigma), galantamine (Sigma), and caffeine (Sigma) as reagents administered to the experimental group, concentrates including acetylcholine of 1000 mM, tacrine of 20 mM, and galantamine of 10 mM were prepared using third distilled water. 10 entities, five days after fertilization, were put in the channel of each color maze, and egg water of 4 mL was used. […]

Take `CCO` [alcohol]: in the experiment with zebrafish [1], the “ability of distinguishing colors (number of zebrafish in each color section)” value is given as “as the alcohol concentration increases, the number of zebrafish that can distinguish colors decreases”.

Consider `Nc1c2c(nc3ccccc13)CCCC2` [tacrine, 1,2,3,4-tetrahydro-9-acridine amine], for which the “change in color preference (number of young zebrafish in blue and yellow sections)” value in the experiment on zebrafish [2] was “moved to yellow that is their avoided color”.
